Results as given in patent publication US20110039898A1, “METHOD FOR SCAVENGING FREE RADICALS AND INHIBITING TYROSINASE AND MELANIN” (priority 2009, published 2011).

Tests used:
tyrosinase = assay: Western blot of B16-F10 cells: tyrosinase; assay type: cell-based; details: B16-F10 cells treated 24 hours
Procedure: (§1) After using nicotinyl hydroxamic acid to treat B16-F10 cells for 24 hours, proteins are extracted and analyzed using the western blot method. The contents of tyrosinase and TRP-1 are reduced as the concentration of nicotinyl hydroxamic acid is increased.

TRP-1 = assay: Western blot of B16-F10 cells: TRP-1; assay type: cell-based; details: B16-F10 cells treated 24 hours
Procedure: as §1

melanin of B16-F10 cells = assay: Melanin content assay in situ; assay type: cell-based; details: for inhibition of melanin of B16-F10 cells: three days, nicotinyl hydroxamic acid 10, 20, 40, 60 μM
Procedure: Melanin Content Assay In Situ
B16-F10 cells (1×10^5) were placed on a 60 mm culture dish. The nicotinyl hydroxamic acid and the N-methyl nicotinic acid hydroxamate iodide with various concentrations were respectively added and cultivated for three days in a culture box. After removal of the upper clean solution, the cells were washed two times using a PBS. The melanin was dissolved by 1N NaOH (90° C., 30 minutes). The melanin content was then measured (405 nm).

p-AKT = assay: Western blot of B16-F10 cells: p-AKT; assay type: cell-based
Description: (§2) Additionally, according to the analytical results obtained using the western blot method, it was shown that the expression of p-ERK, p-MEK and p-AKT is increased as the concentration of nicotinyl hydroxamic acid is increased. Thus, in addition to inhibition of tyrosinase and adjustment of MITF, nicotinyl hydroxamic acid also reduces the melanin content in cells through ERK and AKT/PKB pathways.

p-ERK = assay: Western blot of B16-F10 cells: p-ERK; assay type: cell-based
Description: as §2

MITF = assay: Western blot of B16-F10 cells: MITF; assay type: cell-based
Procedure: as §1
Microphthalmia-associated transcription factor (MITF) is a transcription factor controlling tyrosinase and TRP-1 expression in cells, with a helix-loop-helix leucine zipper structure, capable of regulation of melanogenesis and survival and proliferation of melanocytes.

[1] = test system: polyphenol oxidase in the apple juice; assay: Polyphenol oxidase inhibition assay in apple juice; assay type: biochemical; details: 5 to 200 μM; absorbance at 420 nm within two hours
Procedure: Polyphenol Oxidase Inhibition Assay
Apples were purchased from local supermarkets. 100 g of apples were peeled, cored and sliced prior to juicing in a blender. The preparation was with 100 ml distilled water filtered through swab and collected by centrifugation 12,000 rpm for 10 min at 4° C. The apple juice obtained was immediately collected 200 μl in a 96 well microplate and mixed nicotinyl hydroxamic acid and N-methyl nicotinic acid hydroxamate iodide (5-200 μM).

[2] = test system: melanin content in B16-F10 cells; assay: Melanin content in B16-F10 cells with ERK and AKT pathway inhibitors; assay type: cell-based
Description: The mechanism of inhibition of melanogenesis by nicotinyl hydroxamic acid in B16-F10 cells is further described as follows. ERK and AKT/[…] pathways participate in melanogenesis. PD98059, a MEK selective inhibitor, inhibits the activity of ERK (ERK is activated by MEK). LY294002, a phosphatidylinositol 3-kinase (PI3K) inhibitor, blocks the AKT/PKB pathway. The two inhibitors are used to determine the participation of nicotinyl hydroxamic acid in the ERK and AKT/PKA pathways. […] However, when nicotinyl hydroxamic acid is simultaneously added, the inhibition of melanin thereby is reduced by PD98059 and LY294002.

p-MEK = assay: Western blot of B16-F10 cells: p-MEK; assay type: cell-based
Description: as §2

human melanocytes = assay: Cell viability assay (MTT), human melanocytes; assay type: cell-based; details: 24 hours
Procedure: (§3) The culture medium was removed from the culture dish filled with cells. The cells were washed using 10 ml of a PBS. The number of the cells was counted by a blood cell counter and diluted to a proper cell concentration. 500 µl/well of the result was added to a 24-well culture plate and cultivated in a 37° C. culture box with 5% CO2 and mist until the cells were stuck on the bottom of the culture dish. After removal of the used culture medium, a fresh drug-containing culture medium with various concentrations was added (the drug was directly added when cells were suspended) and cultivated for 24 hours in a 37° C. culture box with 5% CO2 and mist. After removal of the upper clean solution, the cells were washed two times using a PBS. An MTT solution (500 μg/ml) prepared from the medium was then added to the well and reacted for 4-6 hours in a 37° C. culture box. After removal of the upper clean solution, 100 μl of a DMSO was added until a formazan crystal was dissolved. The absorption of the result was then measured by an ELISA reader (600 nm).

[3] = test system: tyrosinase activity of B16-F10 cells; assay: Tyrosinase activity assay in situ; assay type: cell-based; details: three days
Procedure: Tyrosinase Activity Assay In Situ
B16-F10 cells (1×10^5) were placed on a 60 mm culture dish. After 12 hours, an adherent monolayer was formed on the bottom of the culture dish. After removal of the used culture medium, a fresh culture medium was added. A sample solution with various concentrations and/or 50 nM melanocytes stimulating hormone (MSH) were then added and cultivated at 37° C. for three days. After removal of the upper clean solution, the cells were washed two times using a PBS. After the cells were scraped away, protein was extracted and quantitated. One hundred μl of a phosphate buffer (250 mM, pH 6.5), 50 μl of a L-DOPA (10 mM) and 50 μl of a cell extract were sequentially added to a 96-well plate, uniformly mixed and reacted in a 37° C. culture box. The absorption of the result was then measured by an ELISA reader (475 nm).

TRP-2 = assay: Western blot of B16-F10 cells: TRP-2; assay type: cell-based; details: B16-F10 cells treated 24 hours
melanoma cells (B16-F10) = assay: Cell viability assay (MTT), melanoma cells; assay type: cell-based; details: 24 hours; for cell toxicity to melanoma cells (B16-F10): under effective concentration to inhibit melanin
Procedure: as §3

[4] = concentration increased to 5 mM

| SMILES | content of tyrosinase as concentration is increased (tyrosinase) | content of TRP-1 as concentration is increased (TRP-1) | concentration added to achieve the same inhibition effect on melanin content (melanin of B16-F10 cells; MSH added) [mM] | inhibition of melanin of B16-F10 cells (melanin of B16-F10 cells; MSH added) | inhibition of melanin of B16-F10 cells (melanin of B16-F10 cells; MSH not added) | concentration added to achieve the same inhibition effect on melanin content (melanin of B16-F10 cells; no MSH added) [mM] | expression of p-AKT as concentration is increased (p-AKT) | expression of p-ERK as concentration is increased (p-ERK) | content of MITF as concentration is increased (MITF) | inhibition of polyphenol oxidase in the apple juice [1] | inhibition of melanin when PD98059 and LY294002 are simultaneously added ([2]; with PD98059 and LY294002) | expression of p-MEK as concentration is increased (p-MEK) | viability of human melanocytes (human melanocytes; concentration increased to 1 mM) | tyrosinase activity of B16-F10 cells as concentration was increased ([3]; MSH added (50 nM)) | tyrosinase activity of B16-F10 cells as concentration was increased ([3]; no MSH added) | content of TRP-2 versus concentration (TRP-2) | cell toxicity to melanoma cells (B16-F10) (melanoma cells (B16-F10)) | viability of human melanocytes (human melanocytes; [4]) | viability of B16-F10 melanoma cells (melanoma cells (B16-F10); [4]) | effect on melanin content in cells ([2]; inhibitor added) |
| --- | --- | --- | --- | --- | --- | --- | --- | --- | --- | --- | --- | --- | --- | --- | --- | --- | --- | --- | --- | --- |
| O=C(NO)c1cccnc1 [nicotinyl hydroxamic acid] | reduced | reduced | 0.04 | effectively inhibited | effectively inhibited | 0.06 | increased | increased | reduced | effectively inhibited | reduced | increased | still alive | decreased | decreased | irrelevant to the concentration | low cell toxicity | – | – | – |
| O=c1cc(CO)occ1O [kojic acid, reference compound] | – | – | 1.5 | – | – | 1.5 | – | – | – | – | – | – | – | – | – | – | – | – | – | – |
| C[n+]1cccc(C(=O)NO)c1 [N-methyl nicotinic acid hydroxamate iodide] | – | – | – | achieved the same effects | achieved the same effects | – | – | – | – | effectively inhibited | – | – | – | decreased | decreased | – | low cell toxicity | still alive | still alive | – |
| COc1cccc(-c2cc(=O)c3ccccc3o2)c1N [PD98059, reference compound] | – | – | – | – | – | – | – | – | – | – | – | – | – | – | – | – | – | – | – | increases melanin content |
